# Data: publication PMC8284926 (Journal of the American Chemical Society, 2021)
# Tests used:
# [1] = system: MEFs lacking Pol β (Pol β −/−); assay: Cytotoxicity in Pol β null mouse embryonic fibroblasts; assay type: cell-based; settings: MMS alone
# DNA polymerase β (Pol β) = DNA polymerase β (Pol β) (Homo sapiens, UniProt P06746); settings: cited from earlier work
SMILES,cytotoxicity relative to wild type MEFs [1],selectivity for Pol β over Pol λ (DNA polymerase β (Pol β))
"COS(C)(=O)=O [MMS, methylmethanesulfonate]",considerably more toxic,–
C=CCc1ccc(O)c(-c2ccc(O)c(CC=C)c2)c1 [honokiol],–,not selective for Pol β over Pol λ
